Consider six compounds from ChEMBL document CHEMBL1909046, “DrugMatrix in vitro pharmacology data”.

Assay [1] has as its target T1, Alpha-2C adrenergic receptor (Homo sapiens, UniProt P18825).
T1 sequence (P18825 whole entry): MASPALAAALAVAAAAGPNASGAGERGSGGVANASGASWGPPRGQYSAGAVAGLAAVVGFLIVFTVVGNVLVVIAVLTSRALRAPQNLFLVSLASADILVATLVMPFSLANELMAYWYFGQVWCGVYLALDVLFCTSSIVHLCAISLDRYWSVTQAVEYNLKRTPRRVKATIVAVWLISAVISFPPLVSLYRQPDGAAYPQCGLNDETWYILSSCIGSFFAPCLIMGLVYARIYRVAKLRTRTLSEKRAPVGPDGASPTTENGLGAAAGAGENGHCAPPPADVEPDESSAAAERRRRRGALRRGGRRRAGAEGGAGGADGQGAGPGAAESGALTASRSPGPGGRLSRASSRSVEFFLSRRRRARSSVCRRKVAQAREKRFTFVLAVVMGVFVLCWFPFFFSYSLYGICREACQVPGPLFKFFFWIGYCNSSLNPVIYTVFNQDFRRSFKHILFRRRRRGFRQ
Nature of the assay: DRUGMATRIX: Adrenergic Alpha-2C radioligand binding (ligand: [3H] MK-912). It counts as cell membranes, Sf9, Membrane.

Another assay concerns the target Insulin receptor (Rattus norvegicus, UniProt P15127). It counts as cell membranes, Wistar, Liver, Membrane. Note: in other assays of this panel Not Active means under 50% inhibition at 10 µM.
The next assay has as its target T2, Adenosine receptor A3 (Homo sapiens, UniProt P0DMS8).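 Note: radioligand binding assay with AB-MECA serving as the labeled ligand; in other assays of this panel Not Active means under 50% inhibition at 10 µM.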
T2 sequence (P0DMS8 whole entry): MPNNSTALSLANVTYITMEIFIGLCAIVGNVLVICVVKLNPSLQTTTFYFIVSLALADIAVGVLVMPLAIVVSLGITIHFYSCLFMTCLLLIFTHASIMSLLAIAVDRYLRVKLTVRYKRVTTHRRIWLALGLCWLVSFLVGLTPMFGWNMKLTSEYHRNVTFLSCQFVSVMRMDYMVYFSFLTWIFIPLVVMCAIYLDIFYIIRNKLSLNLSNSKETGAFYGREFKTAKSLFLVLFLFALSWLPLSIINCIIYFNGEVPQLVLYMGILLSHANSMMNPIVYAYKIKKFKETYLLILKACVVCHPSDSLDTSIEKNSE
In kind it is cell membranes, CHO-K1, Membrane. To be noted: cho-k1.

The nature of assay [2]: DRUGMATRIX: Glutamate, AMPA radioligand binding (ligand: [3H] AMPA). It counts as cell membranes, Rattus norvegicus, Wistar, Cerebral cortex, Membrane. To be noted: Not Active = under 50% inhibition at 10 µM.
The nature of assay [3]: DRUGMATRIX: Leukotriene, BLT (LTB4) radioligand binding (ligand: [3H]LTB4). Particulars: u-937; Not Active = under 50% inhibition at 10 µM. It counts as cell membranes, Membrane.
For assay [4], the target named is Mitogen-activated protein kinase 3 (Homo sapiens, UniProt P27361). The assay is described as follows: DRUGMATRIX: Protein Serine/Threonine Kinase, ERK1 enzyme inhibition (substrate: Myelin Basic Protein). Also on record: species or system Escherichia coli. To be noted: Not Active = under 50% inhibition at 10 µM.
Chain of Mitogen-activated protein kinase 3 (P27361 whole entry): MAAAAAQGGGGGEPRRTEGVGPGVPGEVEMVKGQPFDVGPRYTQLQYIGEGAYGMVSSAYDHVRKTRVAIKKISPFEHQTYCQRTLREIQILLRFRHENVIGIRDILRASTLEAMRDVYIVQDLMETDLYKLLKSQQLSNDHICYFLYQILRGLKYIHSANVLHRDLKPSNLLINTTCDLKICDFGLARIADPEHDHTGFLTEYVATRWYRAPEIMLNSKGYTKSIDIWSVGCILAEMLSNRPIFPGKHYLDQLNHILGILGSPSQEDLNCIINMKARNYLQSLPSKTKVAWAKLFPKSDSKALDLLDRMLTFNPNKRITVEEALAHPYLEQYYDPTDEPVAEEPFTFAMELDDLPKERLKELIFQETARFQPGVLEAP

Chain of Insulin receptor (P15127 27-759 limits assumed): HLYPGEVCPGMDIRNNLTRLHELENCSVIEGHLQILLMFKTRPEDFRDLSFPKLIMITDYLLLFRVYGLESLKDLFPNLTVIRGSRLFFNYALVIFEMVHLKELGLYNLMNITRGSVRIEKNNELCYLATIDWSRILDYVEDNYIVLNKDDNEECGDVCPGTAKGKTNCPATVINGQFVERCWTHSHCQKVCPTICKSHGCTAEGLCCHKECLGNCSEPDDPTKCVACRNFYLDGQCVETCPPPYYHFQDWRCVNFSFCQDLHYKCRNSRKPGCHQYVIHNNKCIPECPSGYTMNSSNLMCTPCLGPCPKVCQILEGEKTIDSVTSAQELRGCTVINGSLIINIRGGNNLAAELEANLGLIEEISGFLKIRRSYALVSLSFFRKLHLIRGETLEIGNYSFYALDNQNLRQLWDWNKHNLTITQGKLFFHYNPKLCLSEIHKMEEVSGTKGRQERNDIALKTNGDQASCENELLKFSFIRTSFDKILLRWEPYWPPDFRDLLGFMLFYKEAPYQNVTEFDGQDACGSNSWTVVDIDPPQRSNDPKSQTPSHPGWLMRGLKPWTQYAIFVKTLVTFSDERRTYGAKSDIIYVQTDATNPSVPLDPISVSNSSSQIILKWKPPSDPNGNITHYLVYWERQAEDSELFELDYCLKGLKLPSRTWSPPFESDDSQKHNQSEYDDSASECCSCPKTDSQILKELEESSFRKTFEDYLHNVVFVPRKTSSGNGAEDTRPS
Chain of Insulin receptor (P15127 764-1383 limits assumed): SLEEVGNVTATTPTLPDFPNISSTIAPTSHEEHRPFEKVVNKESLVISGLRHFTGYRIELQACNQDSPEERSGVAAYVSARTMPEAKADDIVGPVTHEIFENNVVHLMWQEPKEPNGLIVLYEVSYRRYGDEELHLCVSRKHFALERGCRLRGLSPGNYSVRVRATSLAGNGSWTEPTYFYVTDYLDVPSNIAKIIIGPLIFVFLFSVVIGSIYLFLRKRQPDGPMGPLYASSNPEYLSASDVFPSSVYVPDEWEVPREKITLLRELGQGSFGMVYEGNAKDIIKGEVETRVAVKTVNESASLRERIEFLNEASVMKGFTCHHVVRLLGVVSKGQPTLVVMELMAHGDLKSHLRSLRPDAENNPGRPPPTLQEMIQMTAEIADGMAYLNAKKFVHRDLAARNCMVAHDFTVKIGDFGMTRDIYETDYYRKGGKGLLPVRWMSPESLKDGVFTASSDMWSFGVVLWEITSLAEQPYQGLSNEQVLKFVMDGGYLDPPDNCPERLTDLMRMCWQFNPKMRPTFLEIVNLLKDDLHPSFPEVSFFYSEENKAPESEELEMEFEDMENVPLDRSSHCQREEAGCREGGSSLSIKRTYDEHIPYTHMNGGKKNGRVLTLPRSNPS

Broadly, the IC50 is the midpoint of a concentration-inhibition curve. What is called Ki is the dissociation constant of the complex between target and ligand, obtained from inhibition or displacement. `C=CCN1CC[C@]23c4c5ccc(O)c4O[C@H]2/C(=N/N=C2\CC[C@@]4(O)[C@H]6Cc7ccc(O)c8c7[C@@]4(CCN6CC=C)[C@H]2O8)CC[C@@]3(O)[C@H]1C5` [NALOXONAZINE]: the IC50 result (in assay [1] (sf9); against Insulin receptor; at Adenosine receptor A3; in assay [2]; in assay [3]; in assay [4]) was “Not Active” throughout. Moreover, the Ki result in assay [2] and in assay [3] was “Not Active” each time.
Consider `Cc1ccnc2c1NC(=O)c1cccnc1N2C1CC1` [NEVIRAPINE], for which the IC50 result (in assay [1] (sf9); at Insulin receptor; against Adenosine receptor A3; in assay [2]; in assay [3]; in assay [4]) was “Not Active” each time. The Ki entry in assay [2] and in assay [3] was “Not Active” each time.
Regarding `NCC(CC(=O)O)c1ccc(Cl)cc1` (centres undefined) [BACLOFEN], the IC50 entry (in assay [1] (sf9); against Insulin receptor; against Adenosine receptor A3; in assay [2]; in assay [3]; in assay [4]) was “Not Active” in each case. The Ki result in assay [2] and in assay [3] was “Not Active” in each case.
As for `CO[C@H]1O[C@@H]2O[C@@]3(C)CC[C@H]4[C@H](C)CC[C@@H]([C@H]1C)[C@@]24OO3`, the IC50 entry (in assay [1] (sf9); at Insulin receptor; against Adenosine receptor A3; in assay [2]; in assay [3]; in assay [4]) was “Not Active” in each case. For the same compound, the Ki result in assay [2] and in assay [3] was “Not Active” throughout.
For the compound `CC(CN1c2ccccc2Sc2ccccc21)N(C)C` (centres undefined) [PROMETHAZINE], the IC50 in assay [1] (read-out: IC50) is 2.43 µM; at Insulin receptor, “Not Active”; at Adenosine receptor A3 it was “Not Active”; in assay [2], “Not Active”; in assay [3], “Not Active”; in assay [4], “Not Active”. For the same compound, the results for the Ki in assay [1] (read-out: Ki), in assay [2] and in assay [3] were 0.353 µM, “Not Active” and “Not Active”, respectively.
With `O=C(O)CNCP(=O)(O)O` [GLYPHOSATE], the IC50 result (in assay [1] (sf9); against Insulin receptor; on Adenosine receptor A3; in assay [2]; in assay [3]; in assay [4]) was “Not Active” in each case. Also, the Ki entry in assay [2] and in assay [3] was “Not Active” throughout.
